US10221129B2, “Inhibitors of human immunodeficiency virus replication” (ViiV HEALTHCARE UK (NO.5) LIMITED, priority 2015, dated 2019)

Tests used:
[1] = Compound cytotoxicity, XTT-based colorimetric assay; format: cell-based; settings: human, uninfected MT2 cells, day 4, XTT
Method: Compound cytotoxicity and the corresponding CC50 values were determined using the same protocol as described in the antiviral assay except that uninfected cells were used. Cytotoxicity was assessed on day 4 in uninfected MT2 cells by using a XTT (2,3-bis[2-Methoxy-4-nitro-5-sulfophenyl]-2H-tetrazolium-5-carboxyanilide inner salt)-based colorimetric assay (Sigma-Aldrich, St Louis, Mo.).

[2] = system: recombinant NL4-3 virus (nef section replaced with Renilla luciferase gene) in MT-2 cells; assay: HIV cell culture assay (antiviral activity, luciferase readout); format: cell-based
Method: HIV cell culture assay—MT-2 cells, 293T cells and the proviral DNA clone of NL4-3 virus were obtained from the NIH AIDS Research and Reference Reagent Program. MT-2 cells were propagated in RPMI 1640 media supplemented with 10% heat inactivated fetal bovine serum (FBS), 100 jag/ml penicillin G and up to 100 units/mL streptomycin. The 293T cells were propagated in DMEM media supplemented with 10% heat inactivated FBS, 100 μg/mL penicillin G and 100 μg/mL streptomycin. A recombinant NL4-3 proviral clone, in which a section of the nef gene was replaced with the Renilla luciferase gene, was used to make the reference virus used in these studies. The recombinant virus was prepared through transfection of the recombinant NL4-3 proviral clone into 293T cells using Transit-293 Transfection Reagent from Mirus Bio LLC (Madison, Wis.). Supernatant was harvested after 2-3 days and the amount of virus present was titered in MT-2 cells using luciferase enzyme activity as a marker by measuring luciferase enzyme activity. Luciferase was quantitated using the EnduRen Live Cell Substrate from Promega (Madison, Wis.). Antiviral activities of compounds toward the recombinant virus were quantified by measuring luciferase activity in MT-2 cells infected for 4-5 days with the recombinant virus in the presence of serial dilutions of the compound.
(Johnson V A, Byington R T. Infectivity Assay. In Techniques in HIV Research. ed. Aldovini A, Walker B D. 71-76. New York: Stockton Press. 1990).

[3] = Renilla, NL43, MT-2 cells infected for 4-5 days with recombinant NL4-3 Renilla luciferase virus

SMILES | CC50 at 4 days [1] | EC50 [2, 3] | CC50 at 4 day [1] | EC50 ([2]; MT-2 cells infected for 4-5 days with recombinant NL4-3 Renilla luciferase virus)
CN(C(=O)[C@H](Cc1cc(F)cc(F)c1)NC(=O)NS(=O)(=O)N1CCc2cccnc21)c1cnc2scnc2c1 [GW-16] | > 100000 nM | 280 nM | – | –
COc1ccc(N(C)C(=O)[C@H](Cc2ccccc2)NC(=O)NS(=O)(=O)Nc2ccccc2OC)cc1 [JB-16] | > 100000 nM | 170 nM | – | –
CC(C)CCNS(=O)(=O)NC(=O)N[C@@H](Cc1cc(F)cc(F)c1)C(=O)N(C)c1ccc2scnc2c1 [CA-145] | > 100000 nM | 120 nM | – | –
COc1ccc(N(C)C(=O)[C@H](Cc2ccccc2)NC(=O)NS(=O)(=O)Nc2cccc(Oc3ccccc3)c2)cc1 [CA-36] | > 33300 nM | 200 nM | – | –
CN(C(=O)[C@H](Cc1cc(F)cc(F)c1)NC(=O)NS(=O)(=O)N(C)c1ccccn1)c1ccc2scnc2c1 [CA-113] | > 100000 nM | 140 nM | – | –
CN(C(=O)[C@H](Cc1cc(F)cc(F)c1)NC(=O)NS(=O)(=O)NC1CCC1)c1ccc2scnc2c1 [CA-132] | > 100000 nM | 50 nM | – | –
COc1ccc(N(C)C(=O)[C@H](Cc2ccccc2)NC(=O)NS(=O)(=O)Nc2cc(Cl)cc(Cl)c2)cc1 [CA-49] | > 33300 nM | 180 nM | – | –
CCOc1ccc(N(CC)C(=O)[C@H](Cc2ccccc2)NC(=O)NS(=O)(=O)N2CCc3cccnc32)cc1 [JB-71] | > 33300 nM | 130 nM | – | –
CN(C(=O)[C@H](Cc1cc(F)cc(F)c1)NC(=O)NS(=O)(=O)N1CCc2ccccc2C1)c1ccc2scnc2c1 [CA-157] | 99700 nM | 880 nM | – | –
COc1ccc(N(C)C(=O)[C@H](Cc2ccccc2)NC(=O)NS(=O)(=O)Nc2cccc(OC(F)(F)F)c2)cc1 [CA-35] | 30300 nM | 380 nM | – | –
[2H]c1nc2cc(N(C)C(=O)[C@H](Cc3cc(F)cc(F)c3)NC(=O)NS(=O)(=O)N3CCc4cccnc43)ccc2s1 [GW-23] | > 10000 nM | 20 nM | – | –
COc1ccc(N(C)C(=O)[C@H](Cc2ccccc2)NC(=O)NS(=O)(=O)Nc2ccccc2Cl)cc1 [JB-5] | > 100000 nM | 100 nM | – | –
COc1ccc(N(C)C(=O)[C@H](Cc2ccccc2)NC(=O)NS(=O)(=O)Nc2cccc(S(=O)(=O)N3CCOCC3)c2)cc1 [CA-47] | > 100000 nM | 2140 nM | – | –
COc1ccc(N(C)C(=O)[C@H](Cc2ccccc2)NC(=O)NS(=O)(=O)Nc2cccc(Cl)c2Cl)cc1 [CA-30] | > 100000 nM | 80 nM | – | –
CN(C(=O)[C@H](Cc1cc(F)cc(F)c1)NC(=O)NS(=O)(=O)N1CCCC1)c1ccc2scnc2c1 [VN-22] | > 100000 nM | 50 nM | – | –
COc1ccc(N(C)C(=O)[C@H](Cc2ccccc2)NC(=O)NS(=O)(=O)N2CCCCC2)cc1 [JB-14] | > 100000 nM | 690 nM | – | –
CN(C(=O)[C@H](Cc1cc(F)cc(F)c1)NC(=O)NS(=O)(=O)Nc1ccc(C(C)(C)C)cc1)c1ccc2scnc2c1 [ZY-11] | 66900 nM | 80 nM | – | –
CN(C(=O)[C@H](Cc1cc(F)cc(F)c1)NC(=O)NS(=O)(=O)N(C)Cc1ccccc1)c1ccc2scnc2c1 [CA-139] | > 100000 nM | 220 nM | – | –
CN(C(=O)[C@H](Cc1cc(F)cc(F)c1)NC(=O)NS(=O)(=O)N1CCc2cccnc21)c1ccc(OC(F)F)cc1 [BB-35] | 97200 nM | 10 nM | – | –
COc1ccc(N(C)C(=O)[C@H](Cc2ccccc2)NC(=O)NS(=O)(=O)Nc2ccccc2OC(F)(F)F)cc1 [CA-26] | > 100000 nM | 270 nM | – | –
Cc1cnc(CNS(=O)(=O)NC(=O)N[C@@H](Cc2cc(F)cc(F)c2)C(=O)N(C)c2ccc3scnc3c2)cn1 [CA-150] | > 100000 nM | 460 nM | – | –
CC1Cc2cccnc2N1S(=O)(=O)NC(=O)N[C@@H](Cc1cc(F)cc(F)c1)C(=O)N(C)c1ccc2scnc2c1 (single isomer, unassigned) [VN-6] | – | – | > 1000 nM | 20 nM
CN(C(=O)[C@H](Cc1cc(F)cc(F)c1)NC(=O)NS(=O)(=O)NC1CC1)c1ccc2scnc2c1 [CA-142] | > 100000 nM | 40 nM | – | –
CN(C(=O)[C@H](Cc1cc(F)cc(F)c1)NC(=O)NS(=O)(=O)N1CCc2cccnc21)c1ccc2cncnc2c1 [BB-30] | > 100000 nM | 260 nM | – | –
CN(C(=O)[C@H](Cc1cc(F)cc(F)c1)NC(=O)NS(=O)(=O)N1CCc2cccnc21)c1ccc(C(N)=O)cc1 [BB-5] | > 100000 nM | 4910 nM | – | –
COc1ccc(N(C)C(=O)[C@H](Cc2ccccc2)NC(=O)NS(=O)(=O)N2CCCCC2c2ccccc2)cc1 (stereo partly shown) [JB-53] | 85500 nM | 1100 nM | – | –
